This is an account of results in US11497751B2, “Modulators of Rho-associated protein kinase” (Redx Pharma PLC, priority 2018, dated 2022).

pIC50: −log10 of the molar value. A value given as a limit tells only on which side of the number the result lay.

The target in this test is T1, N-terminal 6His-tagged ROCK2 catalytic domain 11-552 (Homo sapiens, UniProt O75116).
T1 construct: N-terminal 6His-tagged ROCK2 catalytic domain 11-552; 6His (N); purchased Dundee University, UK; host or cells: baculovirus expression system
T1 sequence (O75116 11-552): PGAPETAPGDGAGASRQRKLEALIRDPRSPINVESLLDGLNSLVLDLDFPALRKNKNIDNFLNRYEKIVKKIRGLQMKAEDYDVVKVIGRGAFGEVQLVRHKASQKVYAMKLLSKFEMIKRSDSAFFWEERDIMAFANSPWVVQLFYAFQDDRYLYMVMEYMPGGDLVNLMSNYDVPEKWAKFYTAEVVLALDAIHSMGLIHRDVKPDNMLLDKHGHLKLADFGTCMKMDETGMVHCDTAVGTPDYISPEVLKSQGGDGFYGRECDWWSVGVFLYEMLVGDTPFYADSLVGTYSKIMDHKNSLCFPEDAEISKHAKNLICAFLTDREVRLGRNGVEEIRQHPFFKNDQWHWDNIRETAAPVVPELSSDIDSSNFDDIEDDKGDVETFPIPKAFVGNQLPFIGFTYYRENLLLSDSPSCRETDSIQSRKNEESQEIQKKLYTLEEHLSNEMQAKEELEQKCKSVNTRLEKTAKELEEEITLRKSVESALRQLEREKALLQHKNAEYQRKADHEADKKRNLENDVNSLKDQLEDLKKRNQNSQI
In words: ROCK2 binding activity: ROCK2 inhibition, ADP-Glo Kinase Assay. It is filed as biochemical. The conditions noted are these: 1.25 nM ROCK2, 100 μM long S6 peptide, 20 μM ATP; 1 hour pre-incubation; read-out: ADP-Glo kinase activity assay ROCK2 Category. The protocol:
Assay for ROCK2 inhibition was performed using the protein construct N-terminal 6His-tagged ROCK2 catalytic domain 11-552 (Dundee University, UK). Protein was purified from a baculovirus expression system. Long S6 peptide ([…]) was used as substrate. Kinase reactions were carried out in 15 μl volume in a 96-well plate (black, half area) using 1.25 nM constitutively active ROCK2 kinase, 100 μM long S6 peptide, 20 μM ATP and test compound in DMSO (or DMSO only for controls). The final concentration of DMSO was 1%. Assay buffer was 50 mM HEPES pH 7.5 supplemented with 0.2 mM EDTA, 10 mM magnesium acetate, 0.01% Tween-20, 1 mM DTT and 0.01% BSA. Test compounds were pre-incubated with ROCK2 kinase for 1 hour before addition of ATP and long S6 peptide. After incubation for a further 1 hour, the amount of ADP produced was measured using ADP-Glo Kinase Assay (Promega) as per manufacturer's instructions. The luminescence was measured on a PHERAstar FS (BMG Labtech). The concentration of test compound required to inhibit ADP production by 50% (the IC50) was calculated using a four-parameter logistic function with software by Dotmatics.
The category “+” refers to compounds with a ROCK2 IC50 value of >10 μM. The category “++” refers to compounds with a ROCK2 IC50 value of 10 to 3 μM. The category “+++” refers to compounds with a ROCK2 IC50 value of 3 to 0.3 μM. The category “++++” refers to compounds with a ROCK2 IC50 value of <0.3 μM.
As for `COC(=O)c1ccc(-c2nc(Nc3ccc4[nH]ncc4c3Cl)n(C)n2)cc1` [Example 56], the pIC50 was greater than 6.52.

As for `CNC(=O)Cc1ccc(-c2nc(Nc3ccc4[nH]ncc4c3Cl)n(C)n2)cc1OC` [Example 57], the pIC50 was 5.52 to 6.52.

As to `CC(C)NC(=O)CN1CCOc2cc(-c3nc(Nc4ccc5[nH]ncc5c4Cl)n(C)n3)ccc21` [Example 58], the pIC50 is greater than 6.52.

In the case of `Cn1nc(-c2cnn(Cc3ccccc3)c2)nc1Nc1ccc2[nH]ncc2c1Cl` [Example 60], the pIC50 is 5.52 to 6.52.

`Cn1nc(-c2ccc(C(=O)N3CCOCC3)cc2)nc1Nc1ccc2[nH]ncc2c1Cl` [Example 61]: the pIC50 is 5.52 to 6.52.

With `CNC(=O)c1ccc(-c2nc(Nc3ccc4[nH]ncc4c3Cl)n(C)n2)cc1` [Example 62], the pIC50 is greater than 6.52.

Turning to `COCc1ccc(-c2nc(Nc3ccc4[nH]ncc4c3Cl)n(C)n2)cc1` [Example 63], the pIC50 is greater than 6.52.

As to `COc1cc(-c2nc(Nc3ccc4[nH]ncc4c3Cl)n(C)n2)ccc1OCC(=O)NCCN(C)C` [Example 64], the pIC50 is greater than 6.52.

Take `Cn1nc(-c2ccc3c(c2)OCCC3=O)nc1Nc1ccc2[nH]ncc2c1Cl` [Example 66]: the pIC50 was greater than 6.52.

Regarding `COc1cc(-c2nc(Nc3ccc4[nH]ncc4c3Cl)n(C)n2)ccc1OCC(=O)NC(C)C` [Example 68], the pIC50 is greater than 6.52.

Turning to `Cn1nc(-c2cccc(N3CCOCC3)c2)nc1Nc1ccc2[nH]ncc2c1Cl` [Example 69], the pIC50 is greater than 6.52.

In the case of `Cn1nc(-c2ccc(N)nc2)nc1Nc1ccc2[nH]ncc2c1Cl` [Example 70], the pIC50 is 5.52 to 6.52.

With `CNC(=O)Nc1ccc(-c2nc(Nc3ccc4[nH]ncc4c3Cl)n(C)n2)cc1OC` [Example 71], the pIC50 is greater than 6.52.

`Cn1nc(-c2ccc3c(c2)OCCO3)nc1Nc1ccc2[nH]ncc2c1Cl` [Example 72]: the pIC50 is 5.52 to 6.52.

In the case of `CC(=O)NCc1ccc(-c2nc(Nc3ccc4[nH]ncc4c3Cl)n(C)n2)cc1` [Example 73], the pIC50 is 5.52 to 6.52.

In the case of `Cn1nc(-c2cccc(CNS(C)(=O)=O)c2)nc1Nc1ccc2[nH]ncc2c1Cl` [Example 75], the pIC50 is greater than 6.52.

Turning to `Cn1nc(-c2cncnc2)nc1Nc1ccc2[nH]ncc2c1Cl` [Example 76], the pIC50 was 5.52 to 6.52.

Regarding `COc1ccc(-c2nc(Nc3ccc4[nH]ncc4c3Cl)n(C)n2)cc1OC` [Example 77], the pIC50 was greater than 6.52.

In the case of `Cn1nc(-c2ccc(S(=O)(=O)N3CCOCC3)cc2)nc1Nc1ccc2[nH]ncc2c1Cl` [Example 78], the pIC50 is 5.00 to 5.52.

Regarding `Cn1nc(C2=CCCNC2)nc1Nc1ccc2[nH]ncc2c1Cl` [Example 81], the pIC50 was 5.00 to 5.52.

With `CN(C)C(=O)c1ccc(-c2nc(Nc3ccc4[nH]ncc4c3Cl)n(C)n2)cc1` [Example 82], the pIC50 is 5.52 to 6.52.

Turning to `CCC(=O)Nc1ccc(-c2nc(Nc3ccc4[nH]ncc4c3Cl)n(C)n2)cc1OC` [Example 83], the pIC50 is greater than 6.52.

As for `Cn1nc(C2=CCC(N)CC2)nc1Nc1ccc2[nH]ncc2c1Cl` (stereo not shown) [Example 84], the pIC50 is less than 5.00.

Consider `COCCOc1cccc(-c2nc(Nc3ccc4[nH]ncc4c3Cl)n(C)n2)c1` [Example 85], for which the pIC50 was greater than 6.52.

Regarding `COc1ccc(-c2nc(Nc3ccc4[nH]ncc4c3Cl)n(C)n2)cc1Cl` [Example 86], the pIC50 is greater than 6.52.

Consider `COc1cc(-c2nc(Nc3ccc4[nH]ncc4c3Cl)n(C)n2)ccc1NCC(=O)NC(C)C` [Example 87], for which the pIC50 is greater than 6.52.

Consider `Cn1nc(-c2ccc(CO)cc2)nc1Nc1ccc2[nH]ncc2c1Cl` [Example 88], for which the pIC50 is 5.52 to 6.52.

For `Cn1nc(-c2ccccc2O)nc1Nc1ccc2[nH]ncc2c1Cl` [Example 89], the pIC50 was greater than 6.52.

Regarding `CCOC(=O)c1cncc(-c2nc(Nc3ccc4[nH]ncc4c3Cl)n(C)n2)c1` [Example 90], the pIC50 is greater than 6.52.

For the compound `Cn1nc(-c2ccc(O)cc2)nc1Nc1ccc2[nH]ncc2c1Cl` [Example 91], the pIC50 was greater than 6.52.

As to `Cn1nc(-c2cccnc2)nc1Nc1ccc2[nH]ncc2c1Cl` [Example 93], the pIC50 is 5.00 to 5.52.

On to `CN(C)CCNC(=O)c1ccc(-c2nc(Nc3ccc4[nH]ncc4c3Cl)n(C)n2)cc1` [Example 94], for which the pIC50 is greater than 6.52.

Regarding `Cn1nc(-c2ccco2)nc1Nc1ccc2[nH]ncc2c1Cl` [Example 96], the pIC50 was 5.52 to 6.52.

For `CN1CCc2cc(-c3nc(Nc4ccc5[nH]ncc5c4Cl)n(C)n3)ccc2C1=O` [Example 97], the pIC50 was greater than 6.52.

`Cn1nc(C2=CCOCC2)nc1Nc1ccc2[nH]ncc2c1Cl` [Example 98]: the pIC50 is less than 5.00.

`COc1ccc(-c2nc(Nc3ccc4[nH]ncc4c3Cl)n(C)n2)cc1` [Example 99]: the pIC50 was greater than 6.52.

Turning to `COc1cc(-c2nc(Nc3ccc4[nH]ncc4c3Cl)n(C)n2)ccc1O` [Example 101], the pIC50 is greater than 6.52.

For `Cn1nc(-c2ccc(N3CCOCC3)cc2)nc1Nc1ccc2[nH]ncc2c1Cl` [Example 102], the pIC50 is greater than 6.52.

For the compound `CC(C)Oc1ccc(-c2nc(Nc3ccc4[nH]ncc4c3Cl)n(C)n2)cn1` [Example 103], the pIC50 is greater than 6.52.

Consider `COc1ccc(-c2nc(Nc3ccc4[nH]ncc4c3Cl)n(C)n2)c(F)c1` [Example 104], for which the pIC50 is greater than 6.52.

Take `Cn1nc(-c2ccc(CN3CCOCC3)cc2)nc1Nc1ccc2[nH]ncc2c1Cl` [Example 105]: the pIC50 was greater than 6.52.

On to `Cn1nc(-c2ccc(C(=O)NCC3CCCO3)cc2)nc1Nc1ccc2[nH]ncc2c1Cl` (stereo not shown) [Example 106], for which the pIC50 was greater than 6.52.

In the case of `Cc1cc(-c2nc(Nc3ccc4[nH]ncc4c3Cl)n(C)n2)n(C)n1` [Example 107], the pIC50 is 5.52 to 6.52.

In the case of `Cn1nc(C2=CCCC2)nc1Nc1ccc2[nH]ncc2c1Cl` [Example 108], the pIC50 was 5.52 to 6.52.

Turning to `Cc1ccc(-c2nc(Nc3ccc4[nH]ncc4c3Cl)n(C)n2)cn1` [Example 109], the pIC50 was 5.00 to 5.52.

Consider `Cn1nc(-c2cccc(C#N)c2)nc1Nc1ccc2[nH]ncc2c1Cl` [Example 110], for which the pIC50 is 5.52 to 6.52.

`Cn1nc(-c2cn[nH]c2)nc1Nc1ccc2[nH]ncc2c1Cl` [Example 111]: the pIC50 is 5.52 to 6.52.

On to `CC(C)n1nccc1-c1nc(Nc2ccc3[nH]ncc3c2Cl)n(C)n1` [Example 112], for which the pIC50 was 5.52 to 6.52.

Take `COCc1cccc(-c2nc(Nc3ccc4[nH]ncc4c3Cl)n(C)n2)c1` [Example 113]: the pIC50 was less than 5.00.

With `COc1ccc(F)c(-c2nc(Nc3ccc4[nH]ncc4c3Cl)n(C)n2)c1` [Example 114], the pIC50 is greater than 6.52.

As to `COCCn1cc(-c2nc(Nc3ccc4[nH]ncc4c3Cl)n(C)n2)cn1` [Example 115], the pIC50 was greater than 6.52.

As to `Cn1nc(-c2cnn(CCN3CCOCC3)c2)nc1Nc1ccc2[nH]ncc2c1Cl` [Example 117], the pIC50 is 5.52 to 6.52.

For the compound `COC(=O)c1ccc(-c2nc(Nc3ccc4[nH]ncc4c3Cl)n(C)n2)cc1OC` [Example 118], the pIC50 is greater than 6.52.

With `Cn1ccc(-c2nc(Nc3ccc4[nH]ncc4c3Cl)n(C)n2)n1` [Example 119], the pIC50 is 5.00 to 5.52.

For `Cn1nc(-c2cccc(N)c2)nc1Nc1ccc2[nH]ncc2c1Cl` [Example 120], the pIC50 was 5.00 to 5.52.

Turning to `Cn1nc(-c2c[nH]c3ccncc23)nc1Nc1ccc2[nH]ncc2c1Cl` [Example 121], the pIC50 is 5.00 to 5.52.

In the case of `Cn1nc(-c2ccc(OCCn3ccc(=O)cc3)cc2)nc1Nc1ccc2[nH]ncc2c1Cl` [Example 122], the pIC50 is greater than 6.52.

For `Cn1nc(-c2ccccc2N)nc1Nc1ccc2[nH]ncc2c1Cl` [Example 123], the pIC50 is 5.52 to 6.52.

Regarding `CNC(=O)c1ccc(-c2nc(Nc3ccc4[nH]ncc4c3Cl)n(C)n2)cn1` [Example 124], the pIC50 was greater than 6.52.

On to `Cn1nc(-c2ccc(S(N)(=O)=O)cc2)nc1Nc1ccc2[nH]ncc2c1Cl` [Example 125], for which the pIC50 was greater than 6.52.

With `CN(C)c1ccc(-c2nc(Nc3ccc4[nH]ncc4c3Cl)n(C)n2)cn1` [Example 127], the pIC50 was 5.52 to 6.52.

For `Cn1nc(-c2ccc(CN)c(F)c2)nc1Nc1ccc2[nH]ncc2c1Cl` [Example 128], the pIC50 was greater than 6.52.

Regarding `Cn1nc(-c2cncc(O)c2)nc1Nc1ccc2[nH]ncc2c1Cl` [Example 129], the pIC50 is 5.52 to 6.52.

Consider `Cn1nc(-c2cncc(N)c2)nc1Nc1ccc2[nH]ncc2c1Cl` [Example 130], for which the pIC50 is greater than 6.52.

Take `Cn1nc(-c2ccc(C(N)=O)cc2)nc1Nc1ccc2[nH]ncc2c1Cl` [Example 131]: the pIC50 was greater than 6.52.

In the case of `Cn1nc(-c2cccc(N)c2)nc1Nc1ccc2[nH]ncc2c1Cl` [Example 132], the pIC50 was 5.52 to 6.52.

As for `Cn1nc(-c2ccnc(N)c2)nc1Nc1ccc2[nH]ncc2c1Cl` [Example 133], the pIC50 was 5.52 to 6.52.

Regarding `Cn1nccc1-c1nc(Nc2ccc3[nH]ncc3c2Cl)n(C)n1` [Example 134], the pIC50 is 5.52 to 6.52.

For the compound `CNC(=O)c1cccc(-c2nc(Nc3ccc4[nH]ncc4c3Cl)n(C)n2)c1` [Example 135], the pIC50 was greater than 6.52.

As for `Cn1nc(-c2cccc(OC(F)(F)F)c2)nc1Nc1ccc2[nH]ncc2c1Cl` [Example 136], the pIC50 was 5.52 to 6.52.
